Test results as given in patent publication US11459324B2, “O-glycoprotein-2-acetamido-2-deoxy-3-D-glycopyranosidase inhibitors” (BIOGEN MA INC., priority 2018, dated 2022).

Biological target: T1, Recombinant full length human OGA enzyme (Homo sapiens, UniProt O60502)
T1 construct: Recombinant full length human OGA enzyme was purchased from Origene; purchased Origene
T1 sequence (O60502 1-916): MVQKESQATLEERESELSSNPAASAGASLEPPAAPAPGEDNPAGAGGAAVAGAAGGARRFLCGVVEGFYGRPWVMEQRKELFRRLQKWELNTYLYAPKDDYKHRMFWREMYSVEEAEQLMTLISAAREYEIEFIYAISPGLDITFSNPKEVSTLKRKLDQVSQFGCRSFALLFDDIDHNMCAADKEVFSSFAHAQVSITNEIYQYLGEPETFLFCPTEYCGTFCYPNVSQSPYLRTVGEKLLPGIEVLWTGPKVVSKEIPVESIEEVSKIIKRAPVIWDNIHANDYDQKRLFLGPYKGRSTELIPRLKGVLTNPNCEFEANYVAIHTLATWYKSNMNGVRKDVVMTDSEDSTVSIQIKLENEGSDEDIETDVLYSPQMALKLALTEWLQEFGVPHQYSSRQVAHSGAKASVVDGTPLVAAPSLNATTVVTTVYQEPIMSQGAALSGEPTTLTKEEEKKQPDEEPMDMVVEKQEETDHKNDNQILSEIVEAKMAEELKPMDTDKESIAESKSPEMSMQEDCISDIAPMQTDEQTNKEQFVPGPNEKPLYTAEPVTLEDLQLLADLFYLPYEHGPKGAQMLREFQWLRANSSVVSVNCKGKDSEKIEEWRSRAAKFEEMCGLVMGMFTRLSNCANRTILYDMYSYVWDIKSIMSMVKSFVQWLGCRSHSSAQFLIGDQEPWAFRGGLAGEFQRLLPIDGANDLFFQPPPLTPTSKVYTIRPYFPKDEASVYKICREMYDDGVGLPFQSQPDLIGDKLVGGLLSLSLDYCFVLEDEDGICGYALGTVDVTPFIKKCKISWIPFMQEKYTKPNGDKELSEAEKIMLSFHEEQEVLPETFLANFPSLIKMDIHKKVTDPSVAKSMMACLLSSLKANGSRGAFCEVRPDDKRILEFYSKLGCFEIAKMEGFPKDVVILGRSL
Experiment: OGA Enzyme Inhibition Biochemical Assay
Conditions: 1 nM OGA, 100 μM 4-MUGlcNAc (Km), pH 6.4, 90 minutes at room temperature, 10-point dose-response from 20 μM
Procedure: OGA Enzyme Inhibition Biochemical Assay
Recombinant full length human OGA enzyme was purchased from Origene. 4-MUGlCNAc substrate was purchased from Sigma. All other reagents were purchased from Sigma or Fisher. Assay buffer consists of the McIlvaine buffer system, pH 6.4 (0.2M Na2HPO4 mixed with 0.1M citric acid) and 0.01% BSA. Reactions consist of 1 nM OGA, 100 μM 4-MUGlcNAc (Km), and compound in a final volume of 10 μl. Reactions were incubated for 90 minutes at room temperature and quenched with 40 μl of 3M glycine, pH 10 and read on a Perkin Elmer Envision plate reader (Ex: 355 nm/Em: 460 nm). Compounds were tested with a 10-point dose-response starting from 20 μM with a 4-fold dilution. Data was fit using GraphPad Prism using a 4-parameter fit with variable slope.

**Q.** `COc1cnn(CC2CCCN(Cc3cnc(NC(C)=O)s3)C2)c1` (centres unmarked) [Example 4-8, N-(5-((3-((4-methoxy-1H-pyrazol-1-yl)methyl)piperidin-1-yl)methyl)thiazol-2-yl)acetamide] was tested. Which IC50 did it give?
**A.** 360 nM

**Q.** `CC(=O)Nc1ncc(CN2C[C@H](Cc3noc(C)n3)C[C@@H]2C)s1` [Example 4-14, N-(5-(((2S,4S)-2-methyl-4-((5-methyl-1,2,4-oxadiazol-3-yl)methyl)pyrrolidin-1-yl)methyl)thiazol-2-yl)acetamide] was tested. Which IC50 did it give?
**A.** 3.8 nM

**Q.** How did the IC50 turn out when `CC(=O)Nc1ncc(CN2CCCC(Cn3cncn3)C2)s1` (centres unmarked) [Example 4-21, N-(5-((3-((1H-1,2,4-triazol-1-yl)methyl)piperidin-1-yl)methyl)thiazol-2-yl)acetamide] was run?
**A.** 38 nM

**Q.** Which IC50 does the source give for `CC(=O)Nc1ncc(CN2C[C@H](Cc3ncc(F)cn3)C[C@@H]2C)s1` (single isomer, unassigned) [Example 2-18] here?
**A.** 358 nM

**Q.** For `CC(=O)Nc1ncc(CN2CCC[C@H]([C@@H](C)c3ncc(F)cn3)C2)s1` (single isomer, unassigned) [Example 2-31], which IC50 is on record?
**A.** 4 nM

**Q.** For `CC(=O)Nc1ncc(CN2CCCC(Cc3cccc(F)c3)C2)s1` (centres unmarked) [Example 1-5, N-(5-((3-(3-fluorobenzyl)piperidin-1-yl)methyl)thiazol-2-yl)acetamide], which IC50 is on record?
**A.** 62 nM

**Q.** How did the IC50 turn out when `CC(=O)Nc1ncc(CN2CCC[C@H](Cc3ncc(C(F)(F)F)cn3)C2)s1` [Example 2-9, (R)-N-(5-((3-((5-(trifluoromethyl)pyrimidin-2-yl)methyl)piperidin-1-yl)methyl)thiazol-2-yl)acetamide] was run?
**A.** 30 nM

**Q.** How did the IC50 turn out when `CC(=O)Nc1ncc(CN2CCC(C)(Cc3ncc(F)cn3)C2)s1` (centres unmarked) [Example 2-35, N-(5-((3-((5-fluoropyrimidin-2-yl)methyl)-3-methylpyrrolidin-1-yl)methyl)thiazol-2-yl)acetamide] was run?
**A.** 1600 nM

**Q.** With `CCc1cnn(CC2CCCN(Cc3cnc(NC(C)=O)s3)C2)c1` (centres unmarked) [Example 4-2, N-(5-((3-((4-ethyl-1H-pyrazol-1-yl)methyl)piperidin-1-yl)methyl)thiazol-2-yl)acetamide] as the compound, how does the IC50 read?
**A.** 970 nM

**Q.** How did the IC50 turn out when `CC(=O)Nc1ncc(CN2CCCC(Cc3cc(F)ccn3)C2)s1` (centres unmarked) [Example 1-13, N-(5-((3-((4-fluoropyridin-2-yl)methyl)piperidin-1-yl)methyl)thiazol-2-yl)acetamide] was run?
**A.** 142 nM

**Q.** How did the IC50 turn out when `CC(=O)Nc1ncc(CN2CCCC(Cn3cc(C(C)=O)cn3)C2)s1` (centres unmarked) [Example 4-11, N-(5-((3-((4-acetyl-1H-pyrazol-1-yl)methyl)piperidin-1-yl)methyl)thiazol-2-yl)acetamide] was run?
**A.** 15 nM

**Q.** `CC(=O)Nc1ncc(CN2CCCC(Cc3cscn3)C2)s1` (centres unmarked) [Example 1-38, N-(5-((3-(thiazol-4-ylmethyl)piperidin-1-yl)methyl)thiazol-2-yl)acetamide] was tested. Which IC50 did it give?
**A.** 31 nM

**Q.** `CC(=O)Nc1ncc(CN2C[C@H](Cc3ncc(F)cn3)C[C@@H]2C(F)(F)F)s1` (single isomer, unassigned) [Example 2-44] was tested. Which IC50 did it give?
**A.** > 20000 nM

**Q.** For `COc1cc(C[C@@H]2C[C@@H](C)N(Cc3sc(NC(C)=O)nc3F)C2)ncn1` [Example 3-43, N-(4-fluoro-5-(((2R,4S)-4-((6-methoxypyrimidin-4-yl)methyl)-2-methylpyrrolidin-1-yl)methyl)thiazol-2-yl)acetamide], which IC50 is on record?
**A.** 87 nM

**Q.** For `CC(=O)Nc1ncc(CN2CCCC(Cc3cncc(C(F)(F)F)c3)C2)s1` (centres unmarked) [Example 1-30, N-(5-((3-((5-(trifluoromethyl)pyridin-3-yl)methyl)piperidin-1-yl)methyl)thiazol-2-yl)acetamide], which IC50 is on record?
**A.** 30 nM

**Q.** With `CC(=O)Nc1nc(F)c(CN2C[C@@H](Cc3noc(C)n3)CC[C@@H]2C)s1` [Example 4-16, N-(4-fluoro-5-(((2S,5R)-2-methyl-5-((5-methyl-1,2,4-oxadiazol-3-yl)methyl)piperidin-1-yl)methyl)thiazol-2-yl)acetamide] as the compound, how does the IC50 read?
**A.** < 1 nM

**Q.** For `CC(=O)Nc1ncc(CN2CCC[C@H](Cc3ncc(F)cn3)C2)s1` [Example 3-1, N-[5-[[(3R)-3-[(5-fluoropyrimidin-2-yl)methyl]-1-piperidyl]methyl]thiazol-2-yl]acetamide], which IC50 is on record?
**A.** 1 nM

**Q.** How did the IC50 turn out when `CC(=O)Nc1nc(F)c(CN2CCC[C@H](Cc3cc(C)nc(C)n3)C2)s1` [Example 3-21, (R)-N-(5-((3-((2,6-dimethylpyrimidin-4-yl)methyl)piperidin-1-yl)methyl)-4-fluorothiazol-2-yl)acetamide] was run?
**A.** < 1 nM

**Q.** How did the IC50 turn out when `COc1ccc(CC2CCN(Cc3cnc(NC(C)=O)s3)C2)cc1` (centres unmarked) [Example 1-15, N-(5-((3-(4-methoxybenzyl)pyrrolidin-1-yl)methyl)thiazol-2-yl)acetamide] was run?
**A.** 46 nM

**Q.** With `CC(=O)Nc1ncc(CN2CCC[C@@H]([C@H](C)c3ncc(F)cn3)C2)s1` (single isomer, unassigned) [Example 2-30] as the compound, how does the IC50 read?
**A.** 32 nM

**Q.** With `CC(=O)Nc1ncc(CN2CCC(Cc3cccc(F)c3)C2)s1` (centres unmarked) [Example 1-16, N-(5-((3-(3-fluorobenzyl)pyrrolidin-1-yl)methyl)thiazol-2-yl)acetamide] as the compound, how does the IC50 read?
**A.** 270 nM

**Q.** Which IC50 does the source give for `CC(=O)Nc1ncc(CN2CCCC(Cc3ccccn3)C2)s1` (centres unmarked) [Example 1-2, N-(5-((3-(pyridin-2-ylmethyl)piperidin-1-yl)methyl)thiazol-2-yl)acetamide] here?
**A.** 4 nM

**Q.** Which IC50 does the source give for `CC(=O)Nc1ncc(CN2CCCC(Cc3ncc(C)s3)C2)s1` (centres unmarked) [Example 1-35, N-(5-((3-((5-methylthiazol-2-yl)methyl)piperidin-1-yl)methyl)thiazol-2-yl)acetamide] here?
**A.** 5 nM

**Q.** How did the IC50 turn out when `CC(=O)Nc1ncc(CN2CCCC(Cc3nccs3)C2)s1` (centres unmarked) [Example 1-39, N-(5-((3-(thiazol-2-ylmethyl)piperidin-1-yl)methyl)thiazol-2-yl)acetamide] was run?
**A.** 11 nM

**Q.** `CC(=O)Nc1ncc(CN2CCCC(Cn3cc(C4CC4)cn3)C2)s1` (centres unmarked) [Example 4-6, N-(5-((3-((4-cyclopropyl-1H-pyrazol-1-yl)methyl)piperidin-1-yl)methyl)thiazol-2-yl)acetamide] was tested. Which IC50 did it give?
**A.** 540 nM

**Q.** With `CC(=O)Nc1ncc(CN2CCC[C@H](Cc3ccc(C(F)F)nc3)C2)s1` [Example 2-8, (R)-N-(5-((3-((6-(difluoromethyl)pyridin-3-yl)methyl)piperidin-1-yl)methyl)thiazol-2-yl)acetamide] as the compound, how does the IC50 read?
**A.** 18 nM

**Q.** `COc1cccc(CC2CCCN(Cc3cnc(NC(C)=O)s3)C2)c1` (centres unmarked) [Example 1-3, N-(5-((3-(3-methoxybenzyl)piperidin-1-yl)methyl)thiazol-2-yl)acetamide] was tested. Which IC50 did it give?
**A.** 33 nM

**Q.** For `CC(=O)Nc1ncc(CN2CC[C@H](C)[C@@H](Cc3ncc(F)cn3)C2)s1` (single isomer, unassigned) [Example 2-37], which IC50 is on record?
**A.** 2 nM

**Q.** Which IC50 does the source give for `CC(=O)Nc1ncc(CN2CCCC(Cc3nccn3C)C2)s1` (centres unmarked) [Example 4-22, N-(5-((3-((1-methyl-1H-imidazol-2-yl)methyl)piperidin-1-yl)methyl)thiazol-2-yl)acetamide] here?
**A.** 43 nM

**Q.** Which IC50 does the source give for `CC(=O)Nc1ncc(CN2CCCC(Cn3cc(C4CCC4)cn3)C2)s1` (centres unmarked) [Example 4-5, N-(5-((3-((4-cyclobutyl-1H-pyrazol-1-yl)methyl)piperidin-1-yl)methyl)thiazol-2-yl)acetamide] here?
**A.** 660 nM

**Q.** `CC(=O)Nc1nc(F)c(CN2C[C@@H](Cc3noc(C)n3)C[C@@H]2C)s1` (single isomer, unassigned) [Example 4-12 Peak 1] was tested. Which IC50 did it give?
**A.** < 1 nM

**Q.** Which IC50 does the source give for `CC(=O)Nc1ncc(CN2CC[C@H](Cc3nccc(C)n3)C2)s1` [Example 3-10, (R)-N-(5-((3-((4-methylpyrimidin-2-yl)methyl)pyrrolidin-1-yl)methyl)thiazol-2-yl)acetamide] here?
**A.** 14 nM

**Q.** `COc1nc(C[C@H]2CCCN(Cc3cnc(NC(C)=O)s3)C2)ncc1F` [Example 2-6, (R)-N-(5-((3-((5-fluoro-4-methoxypyrimidin-2-yl)methyl)piperidin-1-yl)methyl)thiazol-2-yl)acetamide] was tested. Which IC50 did it give?
**A.** 8 nM

**Q.** `CC(=O)Nc1ncc(CN2CC[C@H](Cc3ncc(F)c(C)n3)C2)s1` [Example 3-11, (R)-N-(5-((3-((5-fluoro-4-methylpyrimidin-2-yl)methyl)pyrrolidin-1-yl)methyl)thiazol-2-yl)acetamide] was tested. Which IC50 did it give?
**A.** 11 nM

**Q.** For `COc1cnc(CC2CCCN(Cc3cnc(NC(C)=O)s3)C2)nc1` (centres unmarked) [Example 2-4, N-(5-((3-((5-methoxypyrimidin-2-yl)methyl)piperidin-1-yl)methyl)thiazol-2-yl)acetamide], which IC50 is on record?
**A.** 2 nM
